Test results as given in patent publication US11236055B2 (Venenum Biodesign, LLC, priority 2016, dated 2022).

Experiments:
human TGR5 receptor = molecular target: T1, human TGR5 receptor (Homo sapiens, UniProt Q8TDU6); assay: Human TGR5 cAMP production assay; type: cell-based; details: human TGR5, luminescent cAMP assay; coded A-D; read-out: Human TGR5 Lum. cAMP Activity (EC50)
T1 construct: host or cells: CHO-K1 (hTGR5-CHO cells)
T1 sequence (Q8TDU6 1-330): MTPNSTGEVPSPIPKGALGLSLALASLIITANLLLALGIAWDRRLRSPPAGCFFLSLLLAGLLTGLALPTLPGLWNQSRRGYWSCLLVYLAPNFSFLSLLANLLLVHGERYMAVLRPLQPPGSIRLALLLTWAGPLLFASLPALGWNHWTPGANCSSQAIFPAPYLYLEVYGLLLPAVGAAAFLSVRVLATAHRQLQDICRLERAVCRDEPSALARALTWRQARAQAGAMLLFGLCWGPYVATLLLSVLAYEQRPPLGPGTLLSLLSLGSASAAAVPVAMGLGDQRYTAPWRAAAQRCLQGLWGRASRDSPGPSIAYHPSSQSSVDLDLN
Summary of the method: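 Intracellular cAMP read by luminescent enzyme-complementation (XS+) after overnight development, following 1 h room-temperature compound treatment of hTGR5-CHO-K1 cells in IBMX plus anti-cAMP antibody. Compounds tested as half-log dilution series; EC50 derived.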

mouse TGR5 receptor = molecular target: T2, mouse TGR5 receptor (Mus musculus, UniProt Q80SS6); assay: Mouse TGR5 cAMP production assay (HTRF, Cisbio cAMP HiRange); type: cell-based; details: HEK293-EBNA cells overexpressing mouse TGR5, HTRF cAMP HiRange; coded A-D
T2 construct: expressed in transfected cells; host or cells: HEK293-EBNA (293 c18, ATCC CRL10852), Hygromycin B selection
T2 sequence (Q80SS6 1-329): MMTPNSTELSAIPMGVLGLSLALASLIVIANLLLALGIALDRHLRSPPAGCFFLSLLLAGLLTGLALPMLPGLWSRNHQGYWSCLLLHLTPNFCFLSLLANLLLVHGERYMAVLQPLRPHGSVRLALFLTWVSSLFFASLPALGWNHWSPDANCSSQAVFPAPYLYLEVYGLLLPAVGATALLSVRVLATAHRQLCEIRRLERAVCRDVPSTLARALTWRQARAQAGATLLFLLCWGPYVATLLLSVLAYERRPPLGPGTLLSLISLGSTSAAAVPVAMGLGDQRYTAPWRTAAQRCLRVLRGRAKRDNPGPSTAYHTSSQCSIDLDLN
Summary of the method: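 cAMP read by HTRF competition after 1 h room-temperature compound exposure of mouse TGR5-overexpressing HEK293-EBNA cells. Cells were suspended in serum-free DMEM containing 500 μM IBMX; compounds ran as 12-point half-log dilutions in duplicate; EC50 derived.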

| SMILES | EC50 (human TGR5 receptor) [nM] | EC50 (mouse TGR5 receptor) [nM] |
| --- | --- | --- |
| CCc1cnccc1-c1cccc([C@H](C)N(CCCC(=O)NCCS(=O)(=O)NCC(=O)O)S(=O)(=O)c2cccc(Cl)c2C)c1 [Compound 21AT, (S) 2-(3-(4-(3-chloro-2-methyl-N-(1-(3-(3-ethylpyridin-4-yl)phenyl)ethyl)phenylsulfonamido)butanamido)ethylsulfonamido)acetic acid] | < 100 | < 100 |
| Cc1cnccc1-c1cccc([C@H](C)N(CCCC(=O)NCCNS(=O)(=O)CC(=O)O)S(=O)(=O)c2cccc(Cl)c2C)c1 [Compound 26AA] | < 100 | < 100 |
| Cc1cnccc1-c1cccc([C@H](C)N(CCCC(=O)NCCNS(=O)(=O)CCC(=O)O)S(=O)(=O)c2cccc(Cl)c2C)c1 [Compound 26AB] | < 100 | < 100 |
| Cc1cnccc1-c1cccc([C@H](C)N(CCCCNC(=O)NCCS(=O)(=O)NCC(=O)O)S(=O)(=O)c2ccccc2C(F)(F)F)c1 [Compound 28AA, (S)-2-(3-(4-(N-(1-(3-(3-methylpyridin-4-yl)phenyl)ethyl)-2-(trifluoromethyl)phenylsulfonamido)butyl)ureido)ethanesulfonamido acetic acid] | < 100 | 100 to 999 |
| Cc1cnccc1-c1cccc([C@H](C)N(CCCCNC(=O)NCS(=O)(=O)O)S(=O)(=O)c2ccccc2C(F)(F)F)c1 [Compound 28AC, (S)-(3-(4-(N-(1-(3-(3-methylpyridin-4-yl)phenyl)ethyl)-2-(trifluoromethyl)phenylsulfonamido)butyl)ureido)methanesulfonic acid] | < 100 | < 100 |
| CCc1cnccc1-c1cccc([C@H](C)N(CCCCNC(=O)NCS(=O)(=O)O)S(=O)(=O)c2ccccc2C(F)(F)F)c1 [Compound 28AH, (S)-(3-(4-(N-(1-(3-(3-ethylpyridin-4-yl)phenyl)ethyl)-2-(trifluoromethyl)phenylsulfonamido)butyl)ureido)methanesulfonic acid] | < 100 | < 100 |
| Cc1cnccc1-c1cccc(C(C)(C)N(CCCNC(=O)NCS(=O)(=O)O)S(=O)(=O)c2cccc(Cl)c2C)c1 [Compound 29, (3-(3-((3-Chloro-2-methyl-N-(2-(3-(3-methylpyridin-4-yl)phenyl)propan-2-yl)phenyl)sulfonamide)propyl)ureido) methanesulfonic acid] | < 100 | 100 to 999 |
| Cc1cnccc1-c1cccc(C(C)(C)N(CCCNC(=O)NCCS(=O)(=O)O)S(=O)(=O)c2cccc(Cl)c2C)c1 [Compound 29AA, 2-(3-(3-((3-Chloro-2-methyl-N-(2-(3-(3-methylpyridin-4-yl)phenyl)propan-2-yl)phenyl)sulfonamide)propyl)ureido)ethane-1-sulfonic acid] | < 100 | < 100 |
| Cc1cnccc1-c1cccc([C@H](C)N(CCCCNC(=O)CS(=O)(=O)O)S(=O)(=O)c2ccccc2C(F)(F)F)c1 [Compound 31AA, (S)-2-((4-(N-(1-(3-(3-methylpyridin-4-yl)phenyl)ethyl)-2-(trifluoromethyl)phenylsulfonamido)butyl)amino)-2-oxoethanesulfonic acid] | < 100 | < 100 |
| Cc1cnccc1-c1cccc([C@H](C)N(CCCCNC(=O)[C@@H](N)CS(=O)(=O)O)S(=O)(=O)c2ccccc2C(F)(F)F)c1 [Compound 31AC, (R)-2-amino-3-((4-(N-((S)-1-(3-(3-methylpyridin-4-yl)phenyl)ethyl)-2-(trifluoromethyl)phenylsulfonamido)butyl)amino)-3-oxopropane-1-sulfonic acid] | < 100 | < 100 |
| CCc1cnccc1-c1cccc([C@H](C)N(CCCC(=O)NCCNS(N)(=O)=O)S(=O)(=O)c2cccc(Cl)c2C)c1 [Compound 37AA, (S)-4-(3-chloro-N-(1-(3-(3-ethylpyridin-4-yl)phenyl)ethyl)-2-methylphenylsulfonamido)-N-(2-(sulfamoylamino)ethyl)butanamide] | < 100 | < 100 |
| Cc1cnccc1-c1cccc([C@H](C)N(CCCC(=O)NCCNS(=O)(=O)NCC(=O)O)S(=O)(=O)c2cccc(Cl)c2C)c1 [Compound 38] | < 100 | < 100 |
| CCc1cnccc1-c1cccc(C2CN(C(=O)CS(=O)(=O)O)CCN2S(=O)(=O)c2cccc(Cl)c2C)c1 (centres unmarked) [Compound 49, 2-(4-((3-Chloro-2-methylphenyl)sulfonyl)-3-(3-(3-ethylpyridin-4-yl)phenyl)piperazin-1-yl)-2-oxoethanesulfonic acid] | < 100 | < 100 |
